Measured values: ChEMBL document CHEMBL3352542, “Synthesis, biological evaluation and molecular modeling study of 2-(1,3,4-thiadiazolyl-thio and 4-methyl-thiazolyl-thio)-quinazolin-4-ones as a new class of DHFR inhibitors” (Bioorg Med Chem Lett, 2014)
The source made the active and inactive calls. The rule behind the calls is not given here.

Key:
[1] = tested on: HCT-116; experiment: Growth inhibition of human HCT116 cells at 10 uM after 48 hrs; assay type: functional
[2] = tested on: COLO 205; experiment: Growth inhibition of human COLO205 cells at 10 uM after 48 hrs; assay type: functional
[3] = tested on: M14; experiment: Growth inhibition of human M14 cells at 10 uM after 48 hrs; assay type: functional
[4] = tested on: NCI/ADR-RES; experiment: Growth inhibition of human NCI-ADR-RES cells at 10 uM after 48 hrs; assay type: functional
[5] = tested on: HL-60(TB); experiment: Growth inhibition of human HL-60(TB) cells at 10 uM after 48 hrs; assay type: functional
[6] = tested on: Malme-3M; experiment: Growth inhibition of human MALME-3M cells at 10 uM after 48 hrs; assay type: functional
[7] = molecular target: T1, Dihydrofolate reductase (Bos taurus, UniProt P00376); experiment: Inhibition of bovine liver DHFR
T1 sequence (P00376 whole entry): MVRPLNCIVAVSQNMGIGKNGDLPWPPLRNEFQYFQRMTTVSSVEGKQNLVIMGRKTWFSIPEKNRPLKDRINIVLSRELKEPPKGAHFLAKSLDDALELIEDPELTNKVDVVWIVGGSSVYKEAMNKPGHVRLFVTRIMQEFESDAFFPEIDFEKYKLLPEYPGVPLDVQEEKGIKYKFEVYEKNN

[8] = tested on: Pseudomonas aeruginosa; experiment: Antimicrobial activity against Pseudomonas aeruginosa assessed as inhibition zone at 200 ug/disk after 24 hrs by disc-diffusion method; assay type: functional; conditions: read-out: IZ
[9] = tested on: A498; experiment: Growth inhibition of human A498 cells at 10 uM after 48 hrs; assay type: functional
[10] = tested on: UACC-62; experiment: Growth inhibition of human UACC62 cells at 10 uM after 48 hrs; assay type: functional
[11] = tested on: UACC-257; experiment: Growth inhibition of human UACC257 cells at 10 uM after 48 hrs; assay type: functional
[12] = tested on: HCC 2998; experiment: Growth inhibition of human HCC2998 cells at 10 uM after 48 hrs; assay type: functional
[13] = tested on: KM12; experiment: Growth inhibition of human KM12 cells at 10 uM after 48 hrs; assay type: functional
[14] = tested on: UO-31; experiment: Growth inhibition of human UO31 cells at 10 uM after 48 hrs; assay type: functional
[15] = tested on: HCT-15; experiment: Growth inhibition of human HCT15 cells at 10 uM after 48 hrs; assay type: functional
[16] = tested on: SW-620; experiment: Growth inhibition of human SW620 cells at 10 uM after 48 hrs; assay type: functional
[17] = tested on: Escherichia coli; experiment: Antimicrobial activity against Escherichia coli assessed as inhibition zone at 200 ug/disk after 24 hrs by disc-diffusion method; assay type: functional; conditions: read-out: IZ
[18] = tested on: SF-539; experiment: Growth inhibition of human SF539 cells at 10 uM after 48 hrs; assay type: functional
[19] = tested on: OVCAR-3; experiment: Growth inhibition of human OVCAR3 cells at 10 uM after 48 hrs; assay type: functional
[20] = tested on: CAKI-1; experiment: Growth inhibition of human CAKI-1 cells at 10 uM after 48 hrs; assay type: functional
[21] = tested on: Bacillus subtilis; experiment: Antimicrobial activity against Bacillus subtilis assessed as inhibition zone at 200 ug/disk after 24 hrs by disc-diffusion method; assay type: functional; conditions: read-out: IZ
[22] = tested on: TK-10; experiment: Growth inhibition of human TK10 cells at 10 uM after 48 hrs; assay type: functional
[23] = tested on: SNB-75; experiment: Growth inhibition of human SNB75 cells at 10 uM after 48 hrs; assay type: functional
[24] = tested on: OVCAR-5; experiment: Growth inhibition of human OVCAR5 cells at 10 uM after 48 hrs; assay type: functional
[25] = tested on: NCI-H226; experiment: Growth inhibition of human NCI-H226 cells at 10 uM after 48 hrs; assay type: functional
[26] = tested on: SR; experiment: Growth inhibition of human SR cells at 10 uM after 48 hrs; assay type: functional
[27] = tested on: SN12C; experiment: Growth inhibition of human SN12C cells at 10 uM after 48 hrs; assay type: functional
[28] = tested on: ACHN; experiment: Growth inhibition of human ACHN cells at 10 uM after 48 hrs; assay type: functional
[29] = tested on: NCI-H522; experiment: Growth inhibition of human NCI-H522 cells at 10 uM after 48 hrs; assay type: functional
[30] = tested on: A549; experiment: Growth inhibition of human A549 cells at 10 uM after 48 hrs; assay type: functional
[31] = tested on: K562; experiment: Growth inhibition of human K562 cells at 10 uM after 48 hrs; assay type: functional
[32] = tested on: HOP-92; experiment: Growth inhibition of human HOP92 cells at 10 uM after 48 hrs; assay type: functional
[33] = tested on: T47D; experiment: Growth inhibition of human T47D cells at 10 uM after 48 hrs; assay type: functional
[34] = tested on: MOLT-4; experiment: Growth inhibition of human MOLT4 cells at 10 uM after 48 hrs; assay type: functional
[35] = tested on: 786-0; experiment: Growth inhibition of human 786-0 cells at 10 uM after 48 hrs; assay type: functional
[36] = tested on: OVCAR-8; experiment: Growth inhibition of human OVCAR8 cells at 10 uM after 48 hrs; assay type: functional
[37] = tested on: NCI-H460; experiment: Growth inhibition of human NCI-H460 cells at 10 uM after 48 hrs; assay type: functional
[38] = tested on: MDA-MB-435; experiment: Growth inhibition of human MDA-MB-435 cells at 10 uM after 48 hrs; assay type: functional
[39] = tested on: MDA-MB-231; experiment: Growth inhibition of human MDA-MB-231 cells at 10 uM after 48 hrs; assay type: functional
[40] = tested on: OVCAR-4; experiment: Growth inhibition of human OVCAR4 cells at 10 uM after 48 hrs; assay type: functional
[41] = tested on: Staphylococcus aureus; experiment: Antimicrobial activity against Staphylococcus aureus assessed as inhibition zone at 200 ug/disk after 24 hrs by disc-diffusion method; assay type: functional; conditions: read-out: IZ
[42] = tested on: PC-3; experiment: Growth inhibition of human PC3 cells at 10 uM after 48 hrs; assay type: functional
[43] = tested on: SF-295; experiment: Growth inhibition of human SF295 cells at 10 uM after 48 hrs; assay type: functional
[44] = tested on: BT-549; experiment: Growth inhibition of human BT549 cells at 10 uM after 48 hrs; assay type: functional
[45] = tested on: LOX IMVI; experiment: Growth inhibition of human LOXIMVI cells at 10 uM after 48 hrs; assay type: functional
[46] = tested on: SF-268; experiment: Growth inhibition of human SF268 cells at 10 uM after 48 hrs; assay type: functional
[47] = tested on: RXF 393; experiment: Growth inhibition of human RXF393 cells at 10 uM after 48 hrs; assay type: functional
[48] = tested on: U-251; experiment: Growth inhibition of human U251 cells at 10 uM after 48 hrs; assay type: functional
[49] = tested on: CCRF-CEM; experiment: Growth inhibition of human CCRF-CEM cells at 10 uM after 48 hrs; assay type: functional
[50] = tested on: MDA-MB-468; experiment: Growth inhibition of human MDA-MB-468 cells at 10 uM after 48 hrs; assay type: functional
[51] = tested on: RPMI-8226; experiment: Growth inhibition of human RPMI8226 cells at 10 uM after 48 hrs; assay type: functional
[52] = tested on: SNB-19; experiment: Growth inhibition of human SNB19 cells at 10 uM after 48 hrs; assay type: functional
[53] = tested on: Candida albicans; experiment: Antimicrobial activity against Candida albicans assessed as inhibition zone at 200 ug/disk after 24 hrs by disc-diffusion method; assay type: functional; conditions: read-out: IZ
[54] = tested on: MCF7; experiment: Growth inhibition of human MCF7 cells at 10 uM after 48 hrs; assay type: functional
[55] = tested on: NCI-H23; experiment: Growth inhibition of human NCI-H23 cells at 10 uM after 48 hrs; assay type: functional
[56] = tested on: HT-29; experiment: Growth inhibition of human HT-29 cells at 10 uM after 48 hrs; assay type: functional
[57] = tested on: Hs-578T; experiment: Growth inhibition of human Hs 578T cells at 10 uM after 48 hrs; assay type: functional
[58] = tested on: SK-MEL-5; experiment: Growth inhibition of human SK-MEL-5 cells at 10 uM after 48 hrs; assay type: functional

Compound: COc1cc2nc(Sc3sc(N)nc3C)n(-c3ccc(Cl)cc3)c(=O)c2cc1OC
- growth inhibition (GI) [1]: inactive
- growth inhibition (GI) [2]: inactive
- growth inhibition (GI) [3]: inactive
- growth inhibition (GI) [4]: inactive
- growth inhibition (GI) [5]: inactive
- growth inhibition (GI) [6]: inactive
- IC50 [7]: 2 µM
- zone of inhibition at 200 µg/disc [8]: 8 mm
- growth inhibition (GI) [9]: inactive
- growth inhibition (GI) [10]: inactive
- growth inhibition (GI) [11]: inactive
- growth inhibition (GI) [12]: inactive
- growth inhibition (GI) [13]: inactive
- growth inhibition (GI) [14]: inactive
- growth inhibition (GI) [15]: inactive
- growth inhibition (GI) [16]: inactive
- zone of inhibition at 200 µg/disc [17]: 8 mm
- growth inhibition (GI) [18]: inactive
- growth inhibition (GI) [19]: inactive
- growth inhibition (GI) [20]: inactive
- zone of inhibition at 200 µg/disc [21]: 14 mm
- growth inhibition (GI) [22]: inactive
- growth inhibition (GI) [23]: inactive
- growth inhibition (GI) [24]: inactive
- growth inhibition (GI) [25]: inactive
- growth inhibition (GI) [26]: inactive
- growth inhibition (GI) [27]: inactive
- growth inhibition (GI) [28]: inactive
- growth inhibition (GI) [29]: inactive
- growth inhibition (GI) [30]: inactive
- growth inhibition (GI) [31]: inactive
- growth inhibition (GI) [32]: inactive
- growth inhibition (GI) [33]: inactive
- growth inhibition (GI) [34]: inactive
- growth inhibition (GI) [35]: inactive
- growth inhibition (GI) [36]: inactive
- growth inhibition (GI) [37]: inactive
- growth inhibition (GI) [38]: inactive
- growth inhibition (GI) [39]: inactive
- growth inhibition (GI) [40]: inactive
- zone of inhibition at 200 µg/disc [41]: 18 mm
- growth inhibition (GI) [42]: inactive
- growth inhibition (GI) [43]: inactive
- growth inhibition (GI) [44]: inactive
- growth inhibition (GI) [45]: inactive
- growth inhibition (GI) [46]: inactive
- growth inhibition (GI) [47]: inactive
- growth inhibition (GI) [48]: inactive
- growth inhibition (GI) [49]: inactive
- growth inhibition (GI) [50]: inactive
- growth inhibition (GI) [51]: inactive
- growth inhibition (GI) [52]: inactive
- zone of inhibition at 200 µg/disc [53]: 8 mm
- growth inhibition (GI) [54]: inactive
- growth inhibition (GI) [55]: inactive
- growth inhibition (GI) [56]: inactive
- growth inhibition (GI) [57]: inactive
- growth inhibition (GI) [58]: inactive

Compound: COc1ccc(-n2c(Sc3sc(N)nc3C)nc3cc(OC)c(OC)cc3c2=O)cc1
- growth inhibition (GI) [1]: inactive
- growth inhibition (GI) [2]: inactive
- growth inhibition (GI) [3]: inactive
- growth inhibition (GI) [4]: inactive
- growth inhibition (GI) [5]: inactive
- growth inhibition (GI) [6]: inactive
- IC50 [7]: 1 µM
- zone of inhibition at 200 µg/disc [8]: 8 mm
- growth inhibition (GI) [9]: inactive
- growth inhibition (GI) [10]: inactive
- growth inhibition (GI) [11]: inactive
- growth inhibition (GI) [12]: inactive
- growth inhibition (GI) [13]: inactive
- growth inhibition (GI) [14]: inactive
- growth inhibition (GI) [15]: inactive
- growth inhibition (GI) [16]: inactive
- zone of inhibition at 200 µg/disc [17]: 8 mm
- growth inhibition (GI) [18]: inactive
- growth inhibition (GI) [19]: inactive
- growth inhibition (GI) [20]: inactive
- zone of inhibition at 200 µg/disc [21]: 8 mm
- growth inhibition (GI) [22]: inactive
- growth inhibition (GI) [23]: inactive
- growth inhibition (GI) [24]: inactive
- growth inhibition (GI) [25]: inactive
- growth inhibition (GI) [26]: inactive
- growth inhibition (GI) [27]: inactive
- growth inhibition (GI) [28]: inactive
- growth inhibition (GI) [29]: inactive
- growth inhibition (GI) [30]: inactive
- growth inhibition (GI) [31]: inactive
- growth inhibition (GI) [32]: inactive
- growth inhibition (GI) [33]: inactive
- growth inhibition (GI) [34]: inactive
- growth inhibition (GI) [35]: inactive
- growth inhibition (GI) [36]: inactive
- growth inhibition (GI) [37]: inactive
- growth inhibition (GI) [38]: inactive
- growth inhibition (GI) [39]: inactive
- growth inhibition (GI) [40]: inactive
- zone of inhibition at 200 µg/disc [41]: 8 mm
- growth inhibition (GI) [42]: inactive
- growth inhibition (GI) [43]: inactive
- growth inhibition (GI) [44]: inactive
- growth inhibition (GI) [45]: inactive
- growth inhibition (GI) [46]: inactive
- growth inhibition (GI) [47]: inactive
- growth inhibition (GI) [48]: inactive
- growth inhibition (GI) [49]: inactive
- growth inhibition (GI) [50]: inactive
- growth inhibition (GI) [51]: inactive
- growth inhibition (GI) [52]: inactive
- zone of inhibition at 200 µg/disc [53]: 8 mm
- growth inhibition (GI) [54]: inactive
- growth inhibition (GI) [55]: inactive
- growth inhibition (GI) [56]: inactive
- growth inhibition (GI) [57]: inactive
- growth inhibition (GI) [58]: inactive
